Test results taken from patent US7112574B2, “C2,8-disubstituted adenosine derivatives and their different uses” (priority 2001, dated 2006).
Where two headings read alike, the source gives them in different places.

How the values were obtained:
adenosine A1 receptor = biological target: T1, adenosine A1 receptor (Rattus norvegicus, UniProt P25099); test: biochemical; settings: for inhibition at 10 µM: read-out: % displacement at 10^-5 M, A1
T1 sequence (P25099 1-326): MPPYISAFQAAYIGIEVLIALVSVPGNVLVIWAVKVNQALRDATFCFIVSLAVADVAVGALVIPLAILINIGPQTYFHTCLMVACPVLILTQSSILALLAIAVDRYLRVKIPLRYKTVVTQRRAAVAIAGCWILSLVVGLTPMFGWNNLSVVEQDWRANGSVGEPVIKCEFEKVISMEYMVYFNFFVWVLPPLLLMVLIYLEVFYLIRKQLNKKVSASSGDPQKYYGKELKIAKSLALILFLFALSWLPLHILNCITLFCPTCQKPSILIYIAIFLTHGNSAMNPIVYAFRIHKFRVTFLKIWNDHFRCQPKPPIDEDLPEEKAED
Procedure: (§1) Incubations were carried out for 1 hr at 37° C. and were terminated by rapid filtration over Whatman GF/B filters, using a Brandell cell harvester (Brandell, Gaithersburg, Md.). Tubes were washed three times with 3 ml of buffer. Radioactivity was determined in a Beckman 5500B γ-counter. Nonspecific binding was determined in the presence of 10^−5 M R-PIA.
(§2) All compounds prepared were tested in radioligand binding assays to determine their affinities for the adenosine A1 receptor in rat brain cortex, the A2A receptor in rat striatum and the human A3 receptor as expressed in HEK 293 cells (Table 2, hereinafter). The Ki values were computed from the displacement curves obtained by nonlinear regression of the competition curves with the software package Prism (Graph Pad, San Diego, Calif.)
(§3) For the adenosine A1 receptor, the tritiated antagonist, [^3H]-1,3-dipropyl-8-cyclopentylxanthine ([^3H]DPCPX), and for the adenosine A2A receptor, the tritiated antagonist [^3H]ZM 241385 were used. Since radiolabeled antagonists are not commercially available for the adenosine A3 receptor, [125I]AB-MECA, an A3 receptor agonist, was used. Displacement experiments were performed in the absence of GTP.

adenosine A2A receptor = adenosine A2A receptor (Rattus norvegicus, UniProt P30543); test: biochemical; settings: for % displacement at 10^-5 M, A2A: [3H]ZM241385, rat striatal membranes, 10 μM, n=2, mean value; for A3/A2A: ratio of Ki A3 (human) to Ki A2A (rat)
Procedure: as §1, §2, §3

[1] = biological target: human adenosine A2A receptors (Homo sapiens, UniProt P29274); settings: for agonist behaviour (intrinsic activity) at the adenosine A2A receptor: cAMP production compared to reference agonist CGS 21680, words
Procedure: CHO cells expressing the human adenosine A2A receptors were grown overnight as a monolayer in 24 wells tissue culture plates (400 μl/well; 2×10^5 cells/well). cAMP generation was performed in Dulbecco's Modified Eagles Medium (DMEM)/N-2-hydroxyethylpiperazin-N′-2-ethansulfonic acid HEPES) buffer (0.60 g HEPES/50 ml DMEM pH 7.4). To each well, washed three times with DMEM/HEPES buffer (250 μl), 100 μl DMEM/HEPES buffer, 100 μl adenosine deaminase (final concentration 5 IU/ml) and 100 μl of a mixture of rolipram and cilostamide (final concentration 50 μM each) were added. After incubation for 40 minutes at 37° C., 100 μL agonist was added. After 15 minutes at 37° C., the reaction was terminated by removing the medium and adding 200 μl 0.1 M HCl. Wells were stored at −20° C. until assay.
The amounts of cAMP were determined after a protocol with cAMP binding protein^12 with the following minor modifications. As a buffer was used 150 mM K2HPO4/10 mM EDTA/0.2% Bovine Serum Albumine (BSA) at pH 7.5. Samples (20 μl+30 μl 0.1 M HCl) were incubated for at least 2.5 hours at 0° C. before filtration over Whatman GF/B filters. […] Filters were counted in Packard Emulsifier Safe scintillation fluid (3.5 ml) after 24 hours of extraction.
All compounds prepared were also tested in a functional assay.

human A3 receptor = biological target: T2, human A3 receptor (Homo sapiens, UniProt P0DMS8); test: Radioligand binding, displacement of [125I]AB-MECA from human A3 receptor expressed in HEK 293 cells; settings: for % displacement at 10^-5 M, A3: 10 μM, n=2, mean value
T2 construct: expressed in transfected cells; host or cells: HEK 293
T2 sequence (P0DMS8 1-318): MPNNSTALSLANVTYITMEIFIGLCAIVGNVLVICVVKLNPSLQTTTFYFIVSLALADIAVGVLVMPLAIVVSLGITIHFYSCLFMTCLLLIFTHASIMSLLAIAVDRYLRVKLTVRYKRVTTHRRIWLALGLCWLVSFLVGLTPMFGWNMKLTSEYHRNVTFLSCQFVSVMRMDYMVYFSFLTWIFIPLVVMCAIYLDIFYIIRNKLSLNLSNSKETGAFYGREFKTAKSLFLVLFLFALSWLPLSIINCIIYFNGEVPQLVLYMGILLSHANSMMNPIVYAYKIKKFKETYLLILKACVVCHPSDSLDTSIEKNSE
Procedure: as §1, §2, §3

[2] = [125I]AB-MECA, human A3 receptor in HEK 293 cells

SMILES	Ki (adenosine A1 receptor)	% displacement at 10^-5 M, A2A (adenosine A2A receptor)	% cAMP production hA2A [1]	agonist behaviour (intrinsic activity) at the adenosine A2A receptor [1]	Ki (human A3 receptor)	melting point	inhibition at 10 µM (adenosine A1 receptor)	Ki (adenosine A2A receptor)	A3/A2A (adenosine A2A receptor)	% displacement at 10^-5 M, A3 (human A3 receptor; [2])	Ki (human A3 receptor; [125I]AB-MECA, human A3 receptor in HEK 293 cells, ±SEM, n=3, read-out: Ki A3)	selectivity for the adenosine A2A receptor compared to A3 (adenosine A2A receptor; from Ki values)
CCCCC#Cc1nc(N)c2nc(NCc3ccccc3)n([C@@H]3O[C@H](CO)[C@@H](O)[C@H]3O)c2n1 [Compound 16, 2-(1-hexynyl)-8-Benzylaminoadenosine]	756 ± 483 nM	35.4%	83% (61–106)	full agonists	7970 ± 610 nM	141 to 143 °C						
CCCC/C=C/c1nc(N)c2nc(NC)n([C@@H]3O[C@H](CO)[C@@H](O)[C@H]3O)c2n1 [Compound 17, 2-((E)-1-Hexenyl)-8-methylaminoadenosine]			54% (49–59)		13400 ± 2130 nM	161 to 166 °C	17.9%	663 ± 106 nM	20.3			
CCCNc1nc2c(N)nc(I)nc2n1[C@@H]1O[C@H](CO)[C@@H](O)[C@H]1O [Compound 9, 2-Iodo-8-propylaminoadenosine]		50.7%			8670 ± 2000 nM	160 to 162 °C	40.2%					
Nc1nc(NCc2ccccc2)nc2c1nc(NCc1ccccc1)n2[C@@H]1O[C@H](CO)[C@@H](O)[C@H]1O [Compound 23, 2,8-di-benzylaminoadenosine]		11.6%	95% (90–100)	full agonists			50.2%			54.1%		
Nc1nc(I)nc2c1ncn2[C@@H]1O[C@H](CO)[C@@H](O)[C@H]1O [Compound 1, 2-Iodoadenosine]			126% (118–134)	full agonist			36.1%					
CCCCC#Cc1nc(N)c2ncn([C@@H]3O[C@H](CO)[C@@H](O)[C@H]3O)c2n1 [Compound 3, 2-(1-hexynyl)adenosine]			61% (58–64)	partial agonism							16.9 ± 4.1 nM	
Nc1nc(I)nc2c1nc(Br)n2[C@@H]1O[C@H](CO)[C@@H](O)[C@H]1O [Compound 5, 2-iodo-8-bromoadenosine]		43.1%					21.6%			6.2%		
CCCC/C=C/c1nc(N)c2nc(NCCCC)n([C@@H]3O[C@H](CO)[C@@H](O)[C@H]3O)c2n1 [Compound 20, 2-((E)-1-hexenyl)-8-butylaminoadenosine]	906 ± 264 nM		36% (33–40)					580 ± 250 nM		47.4%		
CCCC/C=C/c1nc(N)c2nc(NCc3ccccc3)n([C@@H]3O[C@H](CO)[C@@H](O)[C@H]3O)c2n1 [Compound 21, 2-((E)-1-hexenyl)-8-benzylaminoadenosine]	2110 ± 560 nM	26.3%	73% (72–75)			153 to 155 °C				24.3%		
CNc1nc2c(N)nc(I)nc2n1[C@@H]1O[C@H](CO)[C@@H](O)[C@H]1O [Compound 7, 2-Iodo-8-methylaminoadenosine]		43.3%	23% (20–25)		7310 ± 440 nM	162 to 164 °C	35.2%					
CCCCC#Cc1nc(N)c2nc(NCC)n([C@@H]3O[C@H](CO)[C@@H](O)[C@H]3O)c2n1 [Compound 13, 2-(1-hexynyl)-8-ethylaminoadenosine]			134% (124–143)	full agonist	8830 ± 1230 nM		30.9%	253 ± 29 nM	34.9			
CCCC/C=C/c1nc(N)c2nc(NCCC)n([C@@H]3O[C@H](CO)[C@@H](O)[C@H]3O)c2n1 [Compound 19, 2-((E)-1-hexenyl)-8-propylaminoadenosine]			73% (70–76)		14300 ± 2160 nM	170 to 172 °C	49.5%	678 ± 25 nM	21.1			
CCCC/C=C/c1nc(N)c2nc(NCC)n([C@@H]3O[C@H](CO)[C@@H](O)[C@H]3O)c2n1 [Compound 18, 2-((E)-1-hexenyl)-8-ethylaminoadenosine]			65% (63–66)		17500 ± 2100 nM	128 to 130 °C	30%	1840 ± 300 nM	9.53			
CCCCC#Cc1nc(N)c2nc(NC)n([C@@H]3O[C@H](CO)[C@@H](O)[C@H]3O)c2n1 [Compound 12, 2-(1-Hexynyl)-8-methylaminoadenosine]			85% (85–86)		5640 ± 780 nM		31.6%	115 nM	49.0			
CCCCC#Cc1nc(N)c2nc(C#CCCCC)n([C@@H]3O[C@H](CO)[C@@H](O)[C@H]3O)c2n1 [Compound 22, 2,8-di-(1-hexynyl)adenosine]		28.7%	99% (98–99)	full agonists	254 ± 34 nM		50.3%					
CCCCNc1nc2c(N)nc(I)nc2n1[C@@H]1O[C@H](CO)[C@@H](O)[C@H]1O [Compound 10, 2-Iodo-8-butylaminoadenosine]			28% (27–30)				28.2%	3110 ± 1650 nM		43.1%		
CCCCC#Cc1nc(N)c2nc(NCCC)n([C@@H]3O[C@H](CO)[C@@H](O)[C@H]3O)c2n1 [Compound 14, 2-(1-Hexynyl)-8-propylaminoadenosine]			58% (50–66)		2160 ± 120 nM	184 to 186 °C	47.6%	82 nM	26.3			~26 fold
CCCC/C=C/c1nc(N)c2ncn([C@@H]3O[C@H](CO)[C@@H](O)[C@H]3O)c2n1 [Compound 4, 2-((E)-1-hexenyl)adenosine]			82% (78–86)	partial agonism	73.5 ± 7.7 nM		53.1%	26.2 ± 1.8 nM	2.78			
Nc1nc(I)nc2c1nc(NCc1ccccc1)n2[C@@H]1O[C@H](CO)[C@@H](O)[C@H]1O [Compound 11, 2-iodo-8-benzylaminoadenosine]		44.7%	125% (92–157)	full agonists			35.5%			39.5%		
CCNc1nc2c(N)nc(I)nc2n1[C@@H]1O[C@H](CO)[C@@H](O)[C@H]1O [Compound 8, 2-iodo-8-ethylaminoadenosine]		40.6%	77% (76–78)		5110 ± 890 nM	205 to 207 °C	35.2%					
